Source: PubChem BioAssay (NCI)
“And” between values parts separate entries of the source, which are not always exact repeats. Equal values may be shown once.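 How tested: cells in 96-well plates exposed to compound for 48 hours at five concentrations. GI50 = concentration required for 50% inhibition of growth. TGI denotes the concentration required for complete inhibition of growth.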

Tests used:
Test in all cases: NCI anticancer screen, dose series, 48 h
U251 CNS = tested on: U251 CNS
MDA-MB-435 = tested on: MDA-MB-435
NCI/ADR-RES ovarian = tested on: NCI/ADR-RES ovarian
COLO 205 colon = tested on: COLO 205 colon
UO-31 renal = tested on: UO-31 renal
HOP-92 NSCLC = tested on: HOP-92 NSCLC
CCRF-CEM leukemia = tested on: CCRF-CEM leukemia
RXF 393 renal = tested on: RXF 393 renal
SF-295 CNS = tested on: SF-295 CNS
T-47D breast = tested on: T-47D breast

Row | SMILES | GI50 (U251 CNS) [µM] | TGI (U251 CNS) | TGI (MDA-MB-435) [µM] | TGI (NCI/ADR-RES ovarian) [µM] | GI50 (COLO 205 colon) [µM] | TGI (COLO 205 colon) | TGI (UO-31 renal) [µM] | GI50 (HOP-92 NSCLC) [µM] | TGI (HOP-92 NSCLC) | GI50 (CCRF-CEM leukemia) [µM] | TGI (CCRF-CEM leukemia) | GI50 (RXF 393 renal) [µM] | TGI (RXF 393 renal) | GI50 (SF-295 CNS) [µM] | TGI (SF-295 CNS) | GI50 (UO-31 renal) [µM] | TGI (T-47D breast) [µM] | GI50 (MDA-MB-435) [µM] | GI50 (NCI/ADR-RES ovarian) [µM] | GI50 (T-47D breast) [µM]
1 | CCC(=O)OC1CCn2c1nc1c2C(=O)C(C)=C(N2CC2)C1=O (stereo not given) | 0.0733 | 0.484 µM and 0.576 µM | 0.0922 | 0.4 | 0.101 | 0.235 µM and 0.561 µM | 0.136 | 2.61 | 7.99 µM and 6.33 µM | 0.523 | 3.85 µM and 21.8 µM | 0.0107 | 0.026 µM and 0.111 µM | 0.0315 | 1.08 µM and 0.151 µM | – | – | – | – | –
2 | CCC(C(=O)[O-])C(=O)[O-].CCC(C(=O)[O-])C(=O)[O-].N.N.NCCCCCN.[Pt+4].[Pt+4] | > 100 | > 100 µM | – | – | 47.8 | > 100 µM | > 100 | > 100 | > 100 µM | 55.9 | > 100 µM | > 100 | > 100 µM | > 100 | > 100 µM | > 100 | – | – | – | –
3 | NC(=O)c1csc(C2C=CC(CO)O2)n1 (stereo not given) | – | > 100 µM | – | – | – | > 100 µM | > 100 | – | > 100 µM | – | > 100 µM | – | – | – | > 10 µM | – | – | – | – | –
4 | CCCCn1c2c(c3ccccc3c1=O)C(=O)c1ccccc1-2 | – | > 100 µM | > 100 | > 100 | – | > 100 µM | > 100 | – | > 100 µM | – | > 100 µM | – | – | – | > 100 µM | – | > 100 | – | – | –
5 | C=C(CN(CC(=C)C(=O)c1ccccc1)C(C)(C)C)C(=O)c1ccccc1 | – | 39.4 µM | – | – | – | 7.52 µM | 24.3 | – | 15 µM | – | > 21 µM | – | 18.7 µM | – | > 54.2 µM | – | – | – | – | –
6 | O=C(Nc1cnn2ccc(N3CCC[C@@H]3c3cc(F)ccc3F)nc12)N1CC[C@H](O)C1 | > 100 | > 100 µM | > 100 | > 100 | > 100 | > 100 µM | > 100 | > 100 | > 100 µM | – | – | > 100 | > 100 µM | > 100 | > 100 µM | > 100 | > 100 | > 100 | > 100 | > 100
7 | C=CCNC1=C(C(=O)OCC)C(=O)CO1 | – | > 100 µM | – | – | – | – | > 100 | – | > 100 µM | – | > 100 µM | – | > 100 µM | – | > 100 µM | – | – | – | – | –
8 | FC(F)(F)c1ccc(C=NC23CC4CC(CC(C4)C2)C3)cc1 | – | > 100 µM | – | – | – | > 100 µM | > 100 | – | > 100 µM | – | > 100 µM | – | > 100 µM | – | > 100 µM | – | – | – | – | –
9 | Cc1c(O)c(=O)ccn1C1OC(CO)C(O)C1O (stereo not given) | – | > 100 µM | – | – | – | > 100 µM | > 100 | – | > 100 µM | – | > 100 µM | – | > 100 µM | – | > 100 µM | – | – | – | – | –
10 | Cc1ccc(S(=O)(=O)CNC(=S)CCCC(=S)NCS(=O)(=O)c2ccc(C)cc2)cc1 | – | > 100 µM | – | – | – | > 100 µM | > 100 | – | 50.3 µM | – | > 100 µM | – | > 100 µM | – | > 100 µM | – | – | – | – | –
11 | O=C(CC/C(C/C(=N/O)c1ccc(F)cc1)=N/O)N(Cc1ccccc1)Cc1ccccc1 | – | > 100 µM | – | – | – | > 100 µM | > 100 | – | > 100 µM | – | > 100 µM | – | > 100 µM | – | > 100 µM | – | – | – | – | –
12 | CC(=O)O[C@H]1[C@@H]2[C@@H]3[C@@H](C[C@H]1C)[C@@H](C)CO[C@@]1(C)CC/C=C(/C)C[C@@H]2O[C@@H]31 | – | > 100 µM | – | – | – | > 100 µM | > 100 | – | > 100 µM | – | > 100 µM | – | > 100 µM | – | > 100 µM | – | – | – | – | –
13 | Cc1ccc(-c2ccc(Nc3c4ccccc4nc4ccccc34)cc2)cn1 | – | – | 16 | 65.6 | – | 12.2 µM | 13.2 | – | 3.28 µM | – | – | – | – | – | 11.9 µM | – | 5.44 | – | – | –
14 | COc1cc2c3c(n(CCCN4CCN(C)CC4)c(=O)c2cc1OC)-c1cc2c(cc1C3=O)OCO2 | 11.4 | 27.5 µM | > 100 | 12.9 | 10.3 | 40.3 µM | 62.8 | 19.8 | 46.9 µM | 2.44 | 17.7 µM | 20.5 | 55 µM | 10.7 | 31.7 µM | 20.6 | – | > 100 | 1.55 | –
15 | COc1ccc(/C=C(/C(=O)N2CCCC2)c2cc(OC)c(OC)c(OC)c2)cc1N | 4.18 | > 100 µM | – | 63.9 | 3.06 | 11 µM | > 100 | 9.92 | > 100 µM | 3.19 | > 100 µM | – | – | 1.11 | > 100 µM | 6.87 | > 100 | – | 4.21 | 3.91
16 | CCCCCCCCCCCCCC/C(C(=O)OC)=C(/O)C(=O)OCC | – | 69.4 µM | – | – | – | > 100 µM | 53.5 | – | 54.5 µM | – | > 100 µM | – | > 100 µM | – | 40.9 µM | – | – | – | – | –
17 | C/C(=N\NC(=O)CC(=O)Nc1ccc(Cl)cc1)c1cc2ccccc2oc1=O | – | > 100 µM | – | – | – | > 100 µM | > 100 | – | – | – | > 100 µM | – | > 100 µM | – | > 100 µM | – | – | – | – | –
18 | O=C(O)c1cc2ccccc2c(N=Nc2c([N+](=O)[O-])cc([N+](=O)[O-])cc2S(=O)(=O)O)c1O | – | > 100 µM | > 100 | > 100 | – | > 100 µM | > 100 | – | > 100 µM | – | > 100 µM | – | > 100 µM | – | > 100 µM | – | – | – | – | –
19 | CC1C=C(OC(=O)c2ccccc2)C(=O)C(n2cc(F)c(=O)n(C(=O)c3ccccc3)c2=O)O1 (stereo not given) | – | > 100 µM | – | – | – | 62.1 µM | > 100 | – | > 100 µM | – | 45.2 µM | – | 81.7 µM | – | > 100 µM | – | – | – | – | –
20 | N#C/C(=C\c1ccc(Br)cc1)n1nnc2cccc(F)c21 | 1.55 | 3.06 µM | 0.913 | 2.19 | 1.98 | 5.02 µM | 2.72 | – | – | 0.444 | > 100 µM | 1.08 | 2.64 µM | 1.92 | 3.88 µM | 1.41 | 4.44 | 0.295 | 0.398 | 1.08
21 | Cn1cc2c(n1)c(N/N=C/c1ccccc1)nn1nnnc21 | – | > 100 µM | – | – | – | > 100 µM | > 100 | – | > 100 µM | – | > 100 µM | – | > 100 µM | – | > 100 µM | – | – | – | – | –
